Consider three compounds from US7790742B2, “Substituted 4-phenyltetrahydroisoquinolines, pharmaceutical compositions thereof, methods for their preparation and therapeutic use” (Sanofi-Aventis Deutschland GmbH, priority 2004, dated 2010).

Assay [1] has as its target T1, NHE3 (Homo sapiens, UniProt P48764).
T1 construct: host or cells: cells, not specified
T1 sequence (P48764 26-834): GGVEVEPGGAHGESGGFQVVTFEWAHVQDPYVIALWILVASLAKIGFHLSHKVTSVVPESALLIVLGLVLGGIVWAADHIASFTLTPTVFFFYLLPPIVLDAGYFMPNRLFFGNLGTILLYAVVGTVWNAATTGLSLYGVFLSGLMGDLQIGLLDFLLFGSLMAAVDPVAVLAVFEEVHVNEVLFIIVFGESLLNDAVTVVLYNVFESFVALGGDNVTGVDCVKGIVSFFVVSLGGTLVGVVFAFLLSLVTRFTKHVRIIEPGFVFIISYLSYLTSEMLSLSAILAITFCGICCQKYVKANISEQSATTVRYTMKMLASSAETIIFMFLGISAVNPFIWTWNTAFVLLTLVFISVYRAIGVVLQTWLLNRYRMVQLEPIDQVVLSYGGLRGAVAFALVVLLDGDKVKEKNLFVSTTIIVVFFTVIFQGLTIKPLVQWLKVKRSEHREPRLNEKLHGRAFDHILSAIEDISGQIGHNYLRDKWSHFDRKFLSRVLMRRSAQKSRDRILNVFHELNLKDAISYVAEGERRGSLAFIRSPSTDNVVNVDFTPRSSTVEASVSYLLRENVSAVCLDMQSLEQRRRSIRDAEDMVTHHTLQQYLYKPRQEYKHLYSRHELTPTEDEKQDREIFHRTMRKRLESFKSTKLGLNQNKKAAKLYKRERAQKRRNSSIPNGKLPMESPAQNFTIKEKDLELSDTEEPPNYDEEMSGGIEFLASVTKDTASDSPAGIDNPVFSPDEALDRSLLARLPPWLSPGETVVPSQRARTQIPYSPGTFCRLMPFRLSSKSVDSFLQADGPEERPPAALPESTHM
To be noted: indirect mechanism; cited from earlier work.

The next assay addresses NHE3 of the rat (Rattus norvegicus, UniProt P26433). To be noted: read-out: half-maximum inhibitory concentration (IC50); cited from earlier work.
Another assay deals with NHE1 (Homo sapiens, UniProt P19634). Put plainly: Tiamenidine inhibitory action on NHE subtypes: NHE1. Format: cell-based. To be noted: therapeutically utilizable concentration range. The source says: (§1) Compounds which are similar to clonidine but have a thiophene instead of the phenyl ring are disclosed in DE1941761. The structures of formula I disclosed and claimed herein differ from existing compounds by the fusing of a thieno-substituent to the imidazole moiety of the formula I or II. This distinction allows the above-described clonidine-like undesired cardiovascular effects mediated by alpha-adrenoreceptor action to be eliminated. […] The application WO03053434 proposes NHE3 inhibitors of the imidazoline type, the patent application WO 03101984 of the thiophene type and the application DE10304374 of the imidazole type.

A further assay deals with T2, NHE5 (Homo sapiens, UniProt Q14940).
T2 sequence (Q14940 1-896): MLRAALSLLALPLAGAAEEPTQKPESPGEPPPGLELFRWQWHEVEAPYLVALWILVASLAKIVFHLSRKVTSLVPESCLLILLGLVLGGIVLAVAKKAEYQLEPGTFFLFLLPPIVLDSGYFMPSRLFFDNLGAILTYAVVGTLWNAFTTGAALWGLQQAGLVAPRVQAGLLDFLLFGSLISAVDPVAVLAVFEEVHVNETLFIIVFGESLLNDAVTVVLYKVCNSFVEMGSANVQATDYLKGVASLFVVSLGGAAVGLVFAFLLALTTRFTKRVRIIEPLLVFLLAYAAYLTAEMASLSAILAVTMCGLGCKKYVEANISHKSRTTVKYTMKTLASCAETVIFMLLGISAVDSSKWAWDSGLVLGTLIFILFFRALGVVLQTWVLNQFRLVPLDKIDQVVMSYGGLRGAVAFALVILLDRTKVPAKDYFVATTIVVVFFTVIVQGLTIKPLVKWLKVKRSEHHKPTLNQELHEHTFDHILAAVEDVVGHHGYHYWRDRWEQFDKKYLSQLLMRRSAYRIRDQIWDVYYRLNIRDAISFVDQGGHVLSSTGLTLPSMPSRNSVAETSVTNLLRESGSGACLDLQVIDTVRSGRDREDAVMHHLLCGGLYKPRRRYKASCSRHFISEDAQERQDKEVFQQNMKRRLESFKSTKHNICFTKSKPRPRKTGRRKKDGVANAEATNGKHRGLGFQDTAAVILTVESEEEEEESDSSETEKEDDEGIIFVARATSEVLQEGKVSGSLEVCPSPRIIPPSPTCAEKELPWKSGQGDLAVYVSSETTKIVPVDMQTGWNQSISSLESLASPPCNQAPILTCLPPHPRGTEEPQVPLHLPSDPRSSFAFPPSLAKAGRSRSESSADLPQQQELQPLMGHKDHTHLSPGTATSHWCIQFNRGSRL
Put plainly: Tiamenidine inhibitory action on NHE subtypes: NHE5. The assay is classed as cell-based. To be noted: therapeutically utilizable concentration range.
Text: as §1

A further assay deals with T3, NHE2 (Homo sapiens, UniProt Q9UBY0).
T3 sequence (Q9UBY0 1-812): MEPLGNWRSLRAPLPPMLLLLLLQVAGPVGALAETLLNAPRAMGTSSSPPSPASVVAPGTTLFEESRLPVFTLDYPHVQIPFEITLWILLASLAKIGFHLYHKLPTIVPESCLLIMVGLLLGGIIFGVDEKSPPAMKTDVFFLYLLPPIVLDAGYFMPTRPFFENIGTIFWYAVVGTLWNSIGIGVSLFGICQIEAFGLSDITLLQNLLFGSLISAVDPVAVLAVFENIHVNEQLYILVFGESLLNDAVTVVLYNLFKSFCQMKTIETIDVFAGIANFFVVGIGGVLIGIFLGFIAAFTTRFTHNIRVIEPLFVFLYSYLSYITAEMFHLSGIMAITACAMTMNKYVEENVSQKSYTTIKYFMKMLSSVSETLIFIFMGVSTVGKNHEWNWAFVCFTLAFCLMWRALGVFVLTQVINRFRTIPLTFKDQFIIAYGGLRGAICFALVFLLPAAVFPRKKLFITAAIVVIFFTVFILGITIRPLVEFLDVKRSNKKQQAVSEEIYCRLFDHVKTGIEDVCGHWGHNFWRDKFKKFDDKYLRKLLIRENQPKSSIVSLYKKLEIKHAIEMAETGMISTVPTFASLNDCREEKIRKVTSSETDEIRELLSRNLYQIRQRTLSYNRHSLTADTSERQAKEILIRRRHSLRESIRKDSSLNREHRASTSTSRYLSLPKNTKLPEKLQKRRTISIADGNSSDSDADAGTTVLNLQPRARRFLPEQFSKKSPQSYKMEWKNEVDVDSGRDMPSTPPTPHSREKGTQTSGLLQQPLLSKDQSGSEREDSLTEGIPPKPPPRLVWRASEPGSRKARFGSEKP
Description: Tiamenidine inhibitory action on NHE subtypes: NHE2. Format: cell-based. To be noted: therapeutically utilizable concentration range.
Text: as §1

In assay [2] the target is T1, NHE3. Description: Tiamenidine inhibitory action on NHE subtypes: NHE3. The assay is classed as cell-based. To be noted: therapeutically utilizable concentration range.
Text: as §1

NHE3 of the rat, sequence (P26433 29-831): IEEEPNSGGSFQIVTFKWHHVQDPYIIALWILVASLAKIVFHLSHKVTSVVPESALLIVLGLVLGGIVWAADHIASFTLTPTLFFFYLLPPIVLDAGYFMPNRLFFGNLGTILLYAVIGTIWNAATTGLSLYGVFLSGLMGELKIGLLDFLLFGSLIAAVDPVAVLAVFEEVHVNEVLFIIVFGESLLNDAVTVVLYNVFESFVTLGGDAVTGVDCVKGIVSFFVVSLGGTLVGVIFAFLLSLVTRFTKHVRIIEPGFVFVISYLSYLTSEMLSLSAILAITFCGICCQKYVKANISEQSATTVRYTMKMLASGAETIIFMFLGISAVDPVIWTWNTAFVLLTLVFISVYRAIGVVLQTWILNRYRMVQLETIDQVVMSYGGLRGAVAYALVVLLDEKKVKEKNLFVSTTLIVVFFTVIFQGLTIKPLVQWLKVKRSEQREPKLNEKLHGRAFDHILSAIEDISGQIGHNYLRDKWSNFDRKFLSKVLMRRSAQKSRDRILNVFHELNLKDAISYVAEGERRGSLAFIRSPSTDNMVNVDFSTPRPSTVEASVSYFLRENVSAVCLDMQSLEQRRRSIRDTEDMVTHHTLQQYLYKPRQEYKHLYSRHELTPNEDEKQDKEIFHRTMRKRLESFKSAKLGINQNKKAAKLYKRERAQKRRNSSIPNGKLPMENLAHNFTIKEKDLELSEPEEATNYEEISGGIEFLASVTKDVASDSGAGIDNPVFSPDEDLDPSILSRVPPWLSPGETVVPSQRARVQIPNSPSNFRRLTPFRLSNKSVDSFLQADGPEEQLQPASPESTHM
NHE1, sequence (P19634 whole entry, species assumed): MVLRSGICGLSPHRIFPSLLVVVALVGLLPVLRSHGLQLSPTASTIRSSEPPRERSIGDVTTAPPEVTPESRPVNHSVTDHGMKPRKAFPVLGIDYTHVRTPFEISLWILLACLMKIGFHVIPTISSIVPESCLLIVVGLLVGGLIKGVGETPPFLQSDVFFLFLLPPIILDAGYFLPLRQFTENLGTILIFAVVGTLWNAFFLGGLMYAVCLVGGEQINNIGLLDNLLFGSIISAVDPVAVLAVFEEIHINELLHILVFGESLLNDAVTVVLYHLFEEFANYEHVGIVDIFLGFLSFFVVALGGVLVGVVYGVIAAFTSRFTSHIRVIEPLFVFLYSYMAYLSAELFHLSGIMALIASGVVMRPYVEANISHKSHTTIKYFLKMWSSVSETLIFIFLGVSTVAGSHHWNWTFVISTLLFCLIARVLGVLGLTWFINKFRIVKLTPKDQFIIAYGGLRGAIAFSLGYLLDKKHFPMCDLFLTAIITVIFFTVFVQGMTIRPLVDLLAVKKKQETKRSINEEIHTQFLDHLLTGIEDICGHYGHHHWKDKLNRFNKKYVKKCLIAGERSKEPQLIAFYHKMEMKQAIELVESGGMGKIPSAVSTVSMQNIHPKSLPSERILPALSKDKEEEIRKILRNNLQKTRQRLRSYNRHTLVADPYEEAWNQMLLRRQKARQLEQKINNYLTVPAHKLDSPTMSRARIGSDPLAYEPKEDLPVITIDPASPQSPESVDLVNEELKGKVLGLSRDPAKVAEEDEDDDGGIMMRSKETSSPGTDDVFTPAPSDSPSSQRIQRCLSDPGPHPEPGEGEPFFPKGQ

Regarding `CC(C)[C@@H](CC[C@@H](C)[C@H]1CC[C@H]2[C@@H]3[C@H](O)C[C@H]4C[C@@H](NCCCNCCCCN)CC[C@]4(C)[C@H]3CC[C@]12C)OS(=O)(=O)O` [squalamine], the “time to maximum strength of action” value at NHE3 [1] is “after one hour”.
Take `Clc1cccc(Cl)c1N=C1NCCN1` [Clonidine]: on NHE3 of the rat, the IC50 was 620 µM.
Consider `Cc1csc(Cl)c1NC1=NCCN1` [tiamenidine], for which the “inhibitory action on NHE1” value against NHE1 is recorded as “no relevant inhibitory actions”. Also, the “inhibitory action on NHE5” value against NHE5 is “no relevant inhibitory actions”. The “inhibitory action on NHE2” value at NHE2 is on record as “no relevant inhibitory actions”. At NHE3 [2], the “inhibitory action on NHE3” value is recorded as “no relevant inhibitory actions”.
